Measurements taken from US8987314B2, “Amide, urea or sulfone amide linked benzothiazole inhibitors of endothelial lipase” (Bristol-Myers Squibb Company, priority 2012, dated 2015).

Legend:
hepatic lipase (HL) = hepatic lipase (HL) (Homo sapiens (Human), UniProt P11150); assay: HL assay: hepatic lipase activity with fluorescent substrate A10070 in DMPG vesicles; type: biochemical
In short: (§1)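 EL from conditioned medium of HT-1080 cells engineered to overexpress endogenous EL; HL partially purified from conditioned medium of HL-overexpressing COS cells. Enzyme preincubated with compound 30 min at 37° C in 50 mM HEPES pH 8.0, 50 mM NaCl, 1 mM CaCl2; DMPG vesicles carrying FRET substrate (0.11 mole fraction) then added.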

Endothelial lipase (EL) = Endothelial lipase (EL) (Homo sapiens (Human), UniProt Q9Y5X9); assay: EL assay: endothelial lipase activity with fluorescent substrate A10070 in DMPG vesicles; type: biochemical
In short: as §1

Chain of Endothelial lipase (EL) (Q9Y5X9 21-500): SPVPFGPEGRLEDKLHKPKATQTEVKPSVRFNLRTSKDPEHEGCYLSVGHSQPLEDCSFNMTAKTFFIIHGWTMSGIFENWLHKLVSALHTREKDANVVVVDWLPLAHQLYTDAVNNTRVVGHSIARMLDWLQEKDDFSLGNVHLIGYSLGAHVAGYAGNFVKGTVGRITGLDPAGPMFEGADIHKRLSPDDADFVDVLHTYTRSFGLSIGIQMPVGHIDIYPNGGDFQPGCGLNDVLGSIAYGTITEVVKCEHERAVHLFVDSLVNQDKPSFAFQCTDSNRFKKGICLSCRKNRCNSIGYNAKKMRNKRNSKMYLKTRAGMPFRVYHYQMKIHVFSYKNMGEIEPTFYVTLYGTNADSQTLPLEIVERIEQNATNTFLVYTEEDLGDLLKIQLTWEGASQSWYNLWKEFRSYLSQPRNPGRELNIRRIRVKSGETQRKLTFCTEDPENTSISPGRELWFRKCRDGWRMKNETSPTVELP
Chain of hepatic lipase (HL) (P11150 23-499, species assumed): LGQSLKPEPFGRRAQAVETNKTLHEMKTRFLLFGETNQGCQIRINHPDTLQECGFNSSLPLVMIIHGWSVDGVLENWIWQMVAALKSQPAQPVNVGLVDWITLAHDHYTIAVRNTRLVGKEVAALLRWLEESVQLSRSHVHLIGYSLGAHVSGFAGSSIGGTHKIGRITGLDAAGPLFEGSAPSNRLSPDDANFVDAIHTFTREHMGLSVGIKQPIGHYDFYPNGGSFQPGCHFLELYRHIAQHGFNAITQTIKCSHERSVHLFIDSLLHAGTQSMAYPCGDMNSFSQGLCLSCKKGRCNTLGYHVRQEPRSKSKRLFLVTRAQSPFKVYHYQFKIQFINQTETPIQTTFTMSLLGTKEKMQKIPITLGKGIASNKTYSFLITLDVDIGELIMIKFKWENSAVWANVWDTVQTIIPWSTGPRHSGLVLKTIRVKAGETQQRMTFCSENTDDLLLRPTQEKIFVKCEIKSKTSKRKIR

Structure (SMILES)	IC50 (hepatic lipase (HL)) [nM]	IC50 (Endothelial lipase (EL)) [nM]
COC(C)(C)CNC(=O)c1ccc(-c2ccc3nc(C(C(=O)NCCS(N)(=O)=O)S(=O)(=O)CC4CC4)sc3c2)cc1 (centres unmarked) [Example B244, 4-(2-{cyclopropylmethane-sulfonyl[(2-sulfamoyl-ethyl)carbamoyl]methyl}-1,3-benzothiazol-6-yl)-N-(2-methoxy-2-methyl-propyl)benzamide]	12	0.9
NS(=O)(=O)CCNC(=O)C(c1nc2ccc(-c3ccc(CO)cc3)cc2s1)S(=O)(=O)Cc1ccc(F)cc1 (centres unmarked) [Example B245, 2-[(4-fluorophenyl)meth-anesulfonyl]-2-{6-[4-(hydroxymethyl)phenyl]-1,3-benzothiazol-2-yl}-N-(2-sulfamoylethyl)a-cetamide]	130	2.1
COCCN(C)C(=O)c1ccc(-c2ccc3nc(C(C(=O)NCCS(N)(=O)=O)S(C)(=O)=O)sc3c2)cc1F (centres unmarked) [Example B246, 2-fluoro-4-(2-{methanesul-fonyl[(2-sulfamoylethyl)car-bamoyl]methyl}-1,3-benzothiazol-6-yl)-N-(2-methoxyethyl)-N-methyl-benzamide]	94.4	2.8
COCCN(C)C(=O)c1ccc(-c2ccc3nc(C(C(=O)NCCS(N)(=O)=O)S(=O)(=O)CC4CC4)sc3c2)cc1F (centres unmarked) [Example B247, 4-(2-{cyclopropylmethane-sulfonyl[(2-sulfamoyl-ethyl)carbamoyl]methyl}-1,3-benzothiazol-6-yl)-2-fluoro-N-(2-methoxy-ethyl)-N-methylbenzamide]	127	6.1
COCC(C)(C)NC(=O)c1ccc(-c2ccc3nc(C(C(=O)NCCS(N)(=O)=O)S(=O)(=O)CC4CC4)sc3c2)cc1 (centres unmarked) [Example B248, 4-(2-{cyclopropylmethane-sulfonyl[(2-sulfamoyl-ethyl)carbamoyl]methyl}-1,3-benzothiazol-6-yl)-N-(1-methoxy-2-methyl-propan-2-yl)benzamide]	17.6	7.5
COCC(C)(C)NC(=O)c1ccc(-c2ccc3nc(C(C(=O)NCCS(N)(=O)=O)S(=O)(=O)Cc4ccc(OC(F)(F)F)cc4)sc3c2)cc1 (centres unmarked) [Example B249, N-(1-methoxy-2-methyl-propan-2-yl)-4-(2-{[(2-sulfamoylethyl)carbamoyl][4-(trifluoromethoxy)phen-yl]methanesulfonyl-methyl}-1,3-benzothiazol-6-yl)benzamide]	29.4	8.3
COC[C@H](C)NC(=O)c1ccc(-c2ccc3nc(C(C(=O)NCCS(N)(=O)=O)S(=O)(=O)Cc4ccc(OC(F)(F)F)cc4)sc3c2)cc1 (stereo partly drawn) [Example B250, N-[(2S)-1-methoxypropan-2-yl]-4-(2-{[(2-sulfamoyl-ethyl)carbamoyl][4-(trifluoromethoxy)phen-yl]methanesulfonylmethyl}-1,3-benzothiazol-6-yl)ben-zamide]	38.4	5.3
C[C@H]1CN(C(=O)c2ccc(-c3ccc4nc(C(C(=O)NCCS(N)(=O)=O)S(=O)(=O)CC5CC5)sc4c3)cc2)CCO1 (stereo partly drawn) [Example B251, 2-cyclopropylmethane-sulfonyl-2-(6-{4-[(2S)-2-methylmorpholine-4-carbonyl]phenyl}-1,3-benzothiazol-2-yl)-N-(2-sulfamoylethyl)acetamide]	363	2.6
Cc1nnc(CNC(=O)C(c2nc3ccc(-c4ccc(O)cc4)cc3s2)S(=O)(=O)Cc2ccccc2)o1 (centres unmarked) [Example B254, 2-[6-(4-hydroxyphenyl)-1,3-benzothiazol-2-yl]-N-[(5-methyl-1,3,4-oxadiazol-2-yl)methyl]-2-phenylmethanesulfonyl-acetamide]	259	294
Cc1nnc(CNC(=O)C(c2nc3ccc(-c4cccc(N(C)C)c4)cc3s2)S(=O)(=O)Cc2ccccc2)o1 (centres unmarked) [Example B255, 2-{6-[3-(dimethylamino)phen-yl]-1,3-benzothiazol-2-yl}-N-[(5-methyl-1,3,4-oxadiazol-2-yl)methyl]-2-phenylmethanesulfonyl-acetamide]	43.5	225
CS(=O)(=O)C(C(=O)NCc1cccc(S(N)(=O)=O)c1)c1nc2ccc(-c3ccccc3)cc2s1 (centres unmarked) [Example B256, 2-methanesulfonyl-2-(6-phenyl-1,3-benzothiazol-2-yl)-N-[(3-sulfamoylphen-yl)methyl]acetamide]	14.7	190
Cc1nnc(CNC(=O)C(c2nc3ccc(-c4ccc(C(=O)N5CC(F)(F)C5)cc4)cc3s2)S(C)(=O)=O)o1 (centres unmarked) [Example B257, 2-{6-[4-(3,3-difluoroazetidine-1-carbonyl)phen-yl]-1,3-benzothiazol-2-yl}-2-methanesulfonyl-N-[(5-methyl-1,3,4-oxadiazol-2-yl)methyl]a-cetamide]	53.3	32
COCCNC(=O)c1ccc(-c2cc3sc(C(C(=O)NCc4nnc(C)o4)S(=O)(=O)CCOC)nc3cc2F)cc1 (centres unmarked) [Example B258, 4-{5-fluoro-2-[(2-methoxy-ethanesulfonyl)({[(5-methyl-1,3,4-oxadiazol-2-yl)methyl]carbamoyl})meth-yl]-1,3-benzothiazol-6-yl}-N-(2-methoxyeth-yl)benzamide]	889	57.2
COCCS(=O)(=O)C(C(=O)NCc1nnc(C)o1)c1nc2cc(F)c(-c3ccc(C(=O)N(C)C)c(F)c3)cc2s1 (centres unmarked) [Example B259, 2-fluoro-4-{5-fluoro-2-[(2-methoxyethanesulfon-yl)({[(5-methyl-1,3,4-oxadiazol-2-yl)methyl]car-bamoyl})methyl]-1,3-benzothiazol-6-yl}-N,N-dimethylbenzamide]	208	121
COCCS(=O)(=O)C(C(=O)NCc1nnc(C)o1)c1nc2cc(F)c(-c3ccc(C(=O)N4CC(C)(O)C4)cc3)cc2s1 (centres unmarked) [Example B260, 2-{5-fluoro-6-[4-(3-hydroxy-3-methyl-azetidine-1-carbonyl)phen-yl]-1,3-benzothiazol-2-yl}-2-(2-methoxyethane-sulfonyl)-N-[(5-methyl-1,3,4-oxadiazol-2-yl)methyl]acetamide]	1340	67

Other lines, results leading:

IC50 (hepatic lipase (HL)) [nM]	IC50 (Endothelial lipase (EL)) [nM]	Structure (SMILES)
765	101	COCCS(=O)(=O)C(C(=O)NCc1nnc(C)o1)c1nc2cc(F)c(-c3ccc(C(=O)N4CCCC4)c(F)c3)cc2s1 (centres unmarked) [Example B261, 2-{5-fluoro-6-[3-fluoro-4-(pyrrolidine-1-carbonyl)phen-yl]-1,3-benzothiazol-2-yl}-2-(2-methoxy-ethanesulfonyl)-N-[(5-methyl-1,3,4-oxadiazol-2-yl)methyl]acetamide]
374	102	COCCS(=O)(=O)C(C(=O)NCc1nnc(C)o1)c1nc2cc(F)c(-c3ccc(C(=O)N4CCCC4)cc3)cc2s1 (centres unmarked) [Example B262, 2-{5-fluoro-6-[4-(pyrrolidine-1-carbonyl)phen-yl]-1,3-benzothiazol-2-yl}-2-(2-methoxy-ethanesulfonyl)-N-[(5-methyl-1,3,4-oxadiazol-2-yl)methyl]acetamide]
10000	77	Cc1nnc(CNC(=O)C(c2nc3ccc(-c4ccc(C(=O)N5CC(C)(O)C5)cc4)cc3s2)S(C)(=O)=O)o1 (centres unmarked) [Example B263, 2-{6-[4-(3-hydroxy-3-methylazetidine-1-carbonyl)phenyl]-1,3-benzothiazol-2-yl}-2-methanesulfonyl-N-[(5-methyl-1,3,4-oxadiazol-2-yl)methyl]acetamide]
184	93	COCCNC(=O)c1ccc(-c2ccc3nc(C(C(=O)NCc4nnc(C)o4)S(=O)(=O)CCOC)sc3c2)cc1 (centres unmarked) [Example B264, 4-{2-[(2-methoxyethane-sulfonyl)({[(5-methyl-1,3,4-oxadiazol-2-yl)meth-yl]carbamoyl})meth-yl]-1,3-benzothiazol-6-yl}-N-(2-methoxyethyl)ben-zamide]
634	59	COCCS(=O)(=O)C(C(=O)NCc1nnc(C)o1)c1nc2ccc(-c3ccc(C(=O)N4CC(C)(O)C4)cc3)cc2s1 (centres unmarked) [Example B265, 2-{6-[4-(3-hydroxy-3-methylazetidine-1-carbonyl)phenyl]-1,3-benzothiazol-2-yl}-2-(2-methoxyethanesulfonyl)-N-[(5-methyl-1,3,4-oxadiazol-2-yl)methyl]a-cetamide]
948	39.1	COCCNC(=O)c1ccc(-c2cc3sc(C(C(=O)NCc4nnc(C)o4)S(C)(=O)=O)nc3cc2F)cc1 (centres unmarked) [Example B266, 4-{5-fluoro-2-[methanesulfonyl({[(5-methyl-1,3,4-oxadiazol-2-yl)methyl]carbamoyl})meth-yl]-1,3-benzothiazol-6-yl}-N-(2-methoxyethyl)ben-zamide]
289	44.5	COCCNC(=O)c1ccc(-c2ccc3nc(C(C(=O)NCCS(N)(=O)=O)S(=O)(=O)C(C)C)sc3c2)cc1 (centres unmarked) [Example B267, N-(2-methoxyethyl)-4-{2-[(propane-2-sulfonyl)[(2-sul-famoylethyl)carbamoyl]meth-yl]-1,3-benzothiazol-6-yl}benzamide]
406	9.2	CC(C)S(=O)(=O)C(C(=O)NCCS(N)(=O)=O)c1nc2cc(C(F)(F)F)c(-c3ccc(C(=O)N4CCOCC4)cc3)cc2s1 (centres unmarked) [Example B268, 2-{6-[4-(morpholine-4-carbonyl)phenyl]-5-(trifluoromethyl)-1,3-benzothiazol-2-yl}-2-(propane-2-sulfonyl)-N-(2-sulfamoylethyl)acetamide]
312	10	COCCNC(=O)c1ccc(-c2cc3sc(C(C(=O)NCCS(N)(=O)=O)S(=O)(=O)C(C)C)nc3cc2C(F)(F)F)cc1 (centres unmarked) [Example B269, N-(2-methoxyethyl)-4-{2-[(propane-2-sulfonyl)[(2-sul-famoylethyl)carbamoyl]meth-yl]-5-(trifluoro-methyl)-1,3-benzothiazol-6-yl}benzamide]
212	205	COCCS(=O)(=O)NS(=O)(=O)c1cccc(CNC(=O)C(c2nc3cc(-c4ccccc4)ccc3s2)S(=O)(=O)CCOC)c1 (centres unmarked) [Example B270, N-({3-[(2-methoxyethane-sulfonamido)sulfonyl]phen-yl}methyl)-2-(2-methoxyethanesulfonyl)-2-(5-phenyl-1,3-benzothiazol-2-yl)a-cetamide]
